Results taken from US20250162989A1, “USP30 INHIBITORS AND USES THEREOF” (Vincere Biosciences, Inc., priority 2021, published 2025).

Each molecule was assayed against recombinant USP30 (amino acids 57-517 of the human sequence) (Homo sapiens (Human), UniProt Q70CQ3) (assay: In vitro USP30 biochemical assay (Ubiquitin-Rhodamine substrate)). Details: 1.5 nM recombinant USP30, 25 nM Ubiquitin-Rhodamine, fluorescence.
Sequence of recombinant USP30 (amino acids 57-517 of the human sequence) (Q70CQ3 57-517): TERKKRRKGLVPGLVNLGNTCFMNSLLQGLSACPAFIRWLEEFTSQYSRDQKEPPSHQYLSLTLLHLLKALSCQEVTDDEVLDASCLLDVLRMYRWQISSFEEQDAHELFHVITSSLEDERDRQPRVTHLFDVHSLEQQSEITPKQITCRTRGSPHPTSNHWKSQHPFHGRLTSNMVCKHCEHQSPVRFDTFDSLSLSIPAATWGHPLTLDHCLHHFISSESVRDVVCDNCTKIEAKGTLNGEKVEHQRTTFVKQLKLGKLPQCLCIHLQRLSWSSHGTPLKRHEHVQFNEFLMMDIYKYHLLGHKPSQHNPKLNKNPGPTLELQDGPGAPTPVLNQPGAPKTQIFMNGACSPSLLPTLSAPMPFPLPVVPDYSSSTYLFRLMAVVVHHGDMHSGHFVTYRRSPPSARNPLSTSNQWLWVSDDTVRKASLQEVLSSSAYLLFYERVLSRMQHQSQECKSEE
Procedure: In vitro biochemical assay to establish the potency of compounds for USP30 inhibition: a 384-well plate assay using a fluorophore tagged substrate of USP30 was used for in vitro screening of compounds. Each compound was tested at
10 different concentrations (0.5 to 10,000 nM) in duplicate wells. […] Data were analyzed using Graph Pad Prism software with a four-parameter (floating slope) fit to log concentration data to determine IC50s.
`CC(C)(C)NS(=O)(=O)c1cccc2c(NC(=O)[C@H](Cc3ccccc3)NC(=O)N3CC4(COC4)C3)cccc12` [Compound I-197] gave an IC50 of 0.05 to 1 µM.
`O=C(N[C@@H](CC1CCNCC1)C(=O)Nc1ccc(S(=O)(=O)NC2CCOCC2)nc1)c1ccc(F)cc1` [Compound I-144] gave an IC50 of 0.05 to 1 µM.
Molecule `CN1CCC(C[C@H](NC(=O)N2CCOCC2)C(=O)Nc2ccc(S(=O)(=O)NC(C)(C)C)cc2)CC1` [Compound I-217] has an IC50 of 1 to 10 µM.
`O=C(N[C@@H](CC1CCNCC1)C(=O)Nc1ccc(S(=O)(=O)NC2COC2)nc1)c1ccc(F)cc1` [Compound I-111] was tested, and the IC50 was 1 to 10 µM.
With `CC(C)C[C@H](NC(=O)c1ccc(F)cc1)C(=O)Nc1ccc(S(=O)(=O)NC(C)(C)CO)nc1` [Compound I-17] the IC50 was 0.05 to 1 µM.
`O=C(Nc1ccc(S(=O)(=O)N[C@@H]2CCOC2)cc1)[C@@H]1C[C@@H](c2ccccc2)CN1C(=O)c1ccc(F)cc1` [Compound I-261] was tested, and the IC50 was 1 to 10 µM.
`CC(C)(C)NS(=O)(=O)c1ccc(NC(=O)[C@H](CC2CCNCC2)NC(=O)N2CCOCC2)cc1` [Compound I-215] gave an IC50 of 1 to 10 µM.
In the case of `O=C(N[C@@H](CC1CCOCC1)C(=O)Nc1cccc2c(S(=O)(=O)NC3COC3)cccc12)c1ccc(F)cc1` [Compound I-10], the IC50 is reported as 1 to 10 µM.
`CC(C)C[C@H](NC(=O)c1ccc(F)cc1)C(=O)Nc1ccc(S(=O)(=O)NC(C)(C)CF)cc1` [Compound I-230] was tested, and the IC50 was 0.05 to 1 µM.
`CC(C)(C)NS(=O)(=O)c1ccc(NC[C@H](O)[C@H](CC2CCNCC2)NC(=O)c2ccc(F)cc2)cc1` [Compound I-235] showed an IC50 of 1 to 10 µM.
Molecule `CN1CCC(C[C@H](NC(=O)c2ccc(F)nc2)C(=O)Nc2ccc(S(=O)(=O)NC(C)(C)C)cc2)CC1` [Compound I-183] has an IC50 of 0.05 to 1 µM.
With `CC(C)(C)NS(=O)(=O)c1ccc(NC(=O)[C@H](Cc2ccccc2)c2nnc(-c3ccc(F)cc3)o2)cc1` (stereo in doubt) [Compound I-56, N-(4-(N-(tert-butyl)sulfamoyl)phenyl)-2-(5-(4-fluorophenyl)-1,3,4-oxadiazol-2-yl)-3-phenylpropanamide] the IC50 was 1 to 10 µM.
In the case of `CC(C)(C)NS(=O)(=O)c1ccc(NC[C@H](O)[C@H](Cc2ccncc2)NC(=O)c2ccc(F)cc2)cc1` [Compound I-236], the IC50 is reported as 0.05 to 1 µM.
`CC(C)(CN1CCOCC1)NS(=O)(=O)c1ccc(NC(=O)[C@@H](NC(=O)c2ccc(F)cc2)C2CC2)cc1` [Compound I-53] showed an IC50 of 1 to 10 µM.
Work on `CC(=O)O[C@@H]1C[C@@H](C(=O)Nc2ccc(S(=O)(=O)N[C@@H]3CCOC3)cc2)N(C(=O)c2ccc(F)cc2)C1` [Compound I-286] yielded an IC50 of 1 to 10 µM.
With `COc1cc(NC(=O)[C@H](CC(C)C)NC(=O)c2ccc(F)cc2)cnc1S(=O)(=O)NC(C)(C)CO` [Compound I-73] the IC50 was 1 to 10 µM.
`CC(C)(CO)NS(=O)(=O)c1ccc(NC(=O)[C@@H]2C[C@@H](C3CCCCC3)CN2C(=O)c2ccc(F)cc2)cn1` [Compound I-258] was tested, and the IC50 was 1 to 10 µM.
Molecule `O=C(N[C@@H](Cc1ccccc1)C(=O)Nc1ccc(S(=O)(=O)NCc2ccn[nH]2)cc1)c1ccc(F)cc1` [Compound I-226] has an IC50 of 0.05 to 1 µM.
Molecule `CC(C)C[C@H](NC(=O)c1ccc(F)cc1)C(=O)Nc1ccc(S(=O)(=O)NCc2ccnn2C)cc1` [Compound I-225] has an IC50 of 0.05 to 1 µM.

Same assay, conditions: […] recombinant USP30, 25 nM Ubiquitin-Rhodamine, fluorescence
`CC(C)(CN1CCOCC1)NS(=O)(=O)c1ccc(NC(=O)[C@H](CO)NC(=O)c2ccc(F)cc2)cc1` [Compound I-36, (S)-4-fluoro-N-(3-hydroxy-1-((4-(N-(2-methyl-1-morpholinopropan-2-yl)sulfamoyl)phenyl)amino)-1-oxopropan-2-yl)benzamide] was tested, and the IC50 was greater than 10 µM.
`N#CC1CC[C@@H](NC(=O)[C@H](Cc2ccccc2)NC(=O)c2ccc(F)cc2)C1` (stereo partly drawn) [Compound I-246] showed an IC50 greater than 10 µM.
For `CC(C)(C)NS(=O)(=O)c1ccc(NC(=O)[C@@H]2C[C@@H](O)CN2C(=O)c2ccc(F)cc2)cc1` [Compound I-264], the IC50 was greater than 10 µM.
`CC(C)(C)NS(=O)(=O)c1ccc(NC(=O)C(CC(N)=O)NC(=O)c2ccc(F)cc2)cc1` (stereo not drawn) [Compound I-244] gave an IC50 greater than 10 µM.
`CC(C)C[C@@H](NC(=O)c1ccc(F)cc1)C(=O)Nc1ccc(S(=O)(=O)NC(C)(C)C)cc1` [Compound I-12] was tested, and the IC50 was greater than 10 µM.
